Laboratory results: patent US12673029B2, “Nanodelivery system based on globulin-1 S allele, preparation method therefor and use thereof” (Zhejiang Gongshang University, priority 2022, dated 2026)

Experiments:
Dendritic cells DC2.4 = assay: Biological activity assay in OVA-sensitized dendritic cells DC2.4 (qRT-PCR of pro-inflammatory cytokines); assay type: cell-based; conditions: DC2.4 cells sensitized with OVA, cultured 24 hours
Experimental: Dendritic cells DC2.4 were sensitized by treatment with ovalbumin (OVA) and cultured for 24 hours with curcumin and wheat GSA protein-curcumin composite nanoparticles as experimental groups, respectively, and relevant experiments were conducted. Total RNA was extracted from the cells, and subjected to reverse transcription according to the instructions to obtain cDNA of relevant cells, and a quantitative reverse transcription polymerase chain reaction (qRT-PCR) was carried out by using a real-time fluorescence quantitative PCR system.

[1] = Light stability assay under UV irradiation (absorbance at 426 nm); assay type: physicochemical; conditions: 30 W UV lamp
Experimental: 0.93 mg of curcumin and 14.96 mg of wheat GSA protein-curcumin composite nanoparticles were accurately weighed to be separately put in petri dishes, and were irradiated at a close range with a 30 W UV lamp, sampling was performed at 0 h, 1 h, 2 h, 3 h, 4 h, 5 h, and 6 h, the samples were separately dissolved with a […], a volume was made up to a constant volume of 250 mL, 10 mL of the prepared solution was taken, and an absorbance at 426 nm was measured, wherein the absorbance was measured for three times to take an average.

[2] = test system: wheat GSA protein (globulin-1 S allele); assay: Fluorescence quenching determination of the binding force of wheat GSA protein to curcumin; conditions: for KSV (Stern-Volmer dynamic quenching constant): GSA 1 μM, curcumin 1-10 μM
Experimental: A wheat GSA protein solution and a curcumin solution were mixed in a certain ratio (1:1, 1:2, 1:5, 1:10) at different temperatures (298 K, 303 K, 310 K) for 2 hours. The final concentration of GSA was 1 μM, wherein the molecular weight of GSA was 56.16 KDa and the concentration of curcumin was 1 μM, 2 μM, 5 μM and 10 μM. The excitation spectrum was set at 280 nm, the emission spectrum was from 320 nm to 500 nm, and the recording temperature was 298 K, 303 K, and 310 K.
At an excitation wavelength of 280 nm, tryptophan and tyrosine residues will be excited. Binding of proteins and small molecules will lead to a decrease in fluorescence emission. As the concentration of curcumin increased, the fluorescence intensity decreased constantly and a slight red shift appeared.
Fluorescence quenching can be divided into dynamic quenching and static quenching. A dynamic quenching process can be distinguished by a Stern-Volmer equation: F0/F=1+KSV[Q]=1+Kqτ0[Q] (1)
wherein F0 and F are the GSA fluorescence intensity of the system in the absence and presence of curcumin, respectively; [Q] is the concentration of a quencher curcumin; and Kq is a fluorescence quenching rate constant.
Values for a static quenching mechanism, a binding constant and the number of binding sites can be obtained from a […] equation: log[(F0-F)/F]=log(Ka)+n log[Q] (2)
wherein Ka is a binding constant, [Q] is the concentration of curcumin, and n is the number of binding sites. A log-log plot of log[(F0−F)/F] versus log[Q] was made at 298 K, 303 K, and 310 K, respectively, according to the equation, as shown in FIG. 3. Ka and n at different temperatures were obtained from the intercept and slope.
To determine the action force between GSA and curcumin, the temperature-dependent thermodynamic parameters (ΔG, ΔH, and ΔS) were calculated using the following equations: -lnK==−ΔH/RT+ΔS/RΔG=ΔH−TΔS (3) • wherein R is a gas constant (8.314 J/mol*K), and T is the experimental temperature.

absorbance at 426 nm after UV irradiation ([1]; 2 h of UV irradiation): 0.606 | absorbance at 426 nm after UV irradiation ([1]; 5 h of UV irradiation): 0.252 | absorbance at 426 nm after UV irradiation ([1]; 6 h of UV irradiation): 0.214 | decrease of absorbance after UV irradiation ([1]; 6 h of UV irradiation): 75% | Kq (fluorescence quenching rate constant) ([2]; 298 K): 1.3981 10^13 L/mol*s | Ka value, order of magnitude ([2]; 298 K, 303 K, and 310 K, 120 min): ~10^6 | Ka (binding constant) ([2]; 298 K, 120 min): 8.5822 10^6 L/mol | KSV (Stern-Volmer dynamic quenching constant) ([2]; 298 K): 1.3981 10^5 L/mol | Kq (fluorescence quenching rate constant) ([2]; 303 K): 2.0211 10^13 L/mol*s | Ka (binding constant) ([2]; 303 K, 120 min): 15.7797 10^6 L/mol | KSV (Stern-Volmer dynamic quenching constant) ([2]; 303 K): 2.0211 10^5 L/mol | Kq (fluorescence quenching rate constant) ([2]; 310 K): 3.0636 10^13 L/mol*s | Ka (binding constant) ([2]; 310 K, 120 min): 16.9238 10^6 L/mol | KSV (Stern-Volmer dynamic quenching constant) ([2]; 310 K): 3.0636 10^5 L/mol
SMILES: COc1cc(/C=C/C(=O)CC(=O)/C=C/c2ccc(O)c(OC)c2)ccc1O [curcumin, Curcumin]
alleviating effect on the allergic effect produced by OVA (pro-inflammatory cytokine mRNA such as IL-6) (Dendritic cells DC2.4): a certain alleviating effect
